Measured values taken from patent US10807958B2, “1,4-bis(3-aminopropyl)piperazine derivative and its use” (INSERM (Institut National de la Sante et de la Recherche …, priority 2015, dated 2020).

Test system: endogenous Tau (MAPT) of wild-type C57/BL6 animals
Experiment: 2D gel electrophoresis of endogenous brain Tau in treated wild-type animals
Format: in vivo, mouse
Conditions: wild-type mice, 1 month; for number of Tau isovariants stained with antibody S199: 5 isovariants in non-treated condition
From the text: Wild-type C57BL/6J animals of 3 months were purchased at Charles Rivers Laboratories (France) and were allow to acclimate in the animal facility for at least one week before any treatment. Thy-Tau22 transgenic colonies (C57BL/6J genetic background) were obtained by crossing heterozygous Thy-Tau22 males with C57BL/6 WT females. […] In this model, a progressive development of NFT is observed in the hippocampus and amygdala, which parallels behavioral impairments (Schindowski et al., 2006). Furthermorever, in the hippocampus, hyper- and abnormally phosphorylated Tau species accumulate within the somato-dendritic area (Schindowski et al., 2006).
For animal treatment, animals were randomly distributed and the compound of Formula I was given in the drinking water at final concentration of 0.5 or 1 mg/kg. Drinking bottles were changed once per week, volume consumption was measured along the treatment period. Food consumption and body weight were assessed. In wild-type animals the pilot study of drug treatment was performed for one month to establish the innocuousness of the treatment with the compound of Formula I. This was based on the physiological, social and behavioural assessments. Thy-Tau22 males were treated for 4 months starting at 3 month old. All protocols were approved by the local ethics committee (n^∘342012, CEEA).
After behavioral assessment, blood was collected in 1.5 mL polypropylene tubes (Eppendorf, France), mice were sacrificed by cervical dislocation to avoid any modifications instrumental to anesthesia (Lefreche et al. 2012). Hippocampi and cortices were dissected and snap frozen in 1.5 mL tubes (Eppendorf). Tissue was homogenized in Tris-HCl buffer (10 mM pH 7.4) containing 320 mM sucrose, protease inhibitors (Complete mini EDTA-free, Roche) sonicated and spun at 12,000×g for 10 min at 4° C. The supernatant was recovered, protein concentration was achieved using the BCA Protein quantification assay kit (Pierce) according to the manufacturer instruction. The supernatant was further processed for biochemical analyses or kept at −80° C. For 1D or 2D gels, the same lysis buffer was used. Thus, equal amount protein in Tris buffer were added with a solution containing 7M urea, 2M thiourée with 2% SDS and sonicated at 60 Hz 30 pulses.
Two-dimensional gel electrophoresis was performed according to the recently published procedure (Fernandez-Gomez et al., 2014). Briefly, cells were rinsed once with PBS and lysed in UTS buffer (7M urea, 2M thiourea, 2% SDS) and sonicated at 60 Hz 30 pulses. Lysate was precipitated with methanol/chloroform. 50 μg of proteins were precipitate using the chloroform/methanol procedure and the pellet was dissolved in 2D buffer [urea 7M, thiourea 2M, 4% CHAPS, and 0.6% Pharmalytes 3-10 (G&E Healthcare)]. […] The strips were layered onto a 4-12% Bis-Tris Poly-acrylamide Gel XT™ Precast Criterion (BioRad) and run with a constant tension of 100V as described for 1D SDS-PAGE. The Western blot was performed as above described for 1D SDS-PAGE and Western-blotting.
To further determine the effect of the compound of Formula I on Tau metabolism, wild-type C57/BL6 animals were treated with 0.5 and 1 mg/Kg of the compound of Formula I for 1 month and endogenous MAPT expression was assessed by 2D gel electrophoresis. Tau protein isovariants consist of three series ranging from pI 10 to 6. The major and most basic isovariants correspond to the mouse Tau isoform comprising the sole exon 10 encoding sequence. The two other series of isoforms of molecular weight of 64 and 69 kDa are isovariants of Tau isoforms which, in addition to the exon 10, contain exon 2 or exon 2+3 encoding sequences, respectively.

Compound: CC(C)CN(CCCN1CCN(CCCNc2c3c(nc4ccccc24)CCCC3)CC1)CC(C)C [compound of Formula I, N-[3-(4-{3-[Bis(2-methylpropyl)amino]propyl}piperazin-1-yl)propyl]-1,2,3,4-tetrahydroacridin-9-amine]
- number of Tau isovariants stained with antibody S199 (0.5 mg/Kg): 3 isovariants
- low molecular weight Tau catabolic products (Tau-Cter antibody) (0.5 mg/Kg, brain 2D gel, FIG. 3): increased in number and intensity
- number of Tau isovariants stained with antibody S199 (1 mg/Kg): 2 isovariants
- distribution of Tau isovariants (Tau-Cter antibody) (0.5 and 1 mg/Kg in drinking water, brain 2D gel, FIG. 3): did not significantly change
- surface of the spots stained with antibody S199 (0.5 and 1 mg/Kg, 2D gel): reduced
- overall 2D profile of the full-length Tau isoforms (after treatment 0.5 and 1 mg/Kg): preserved
